The results in this text go back to patent US9018175B2 (Takeda GmbH, priority 2009, dated 2015).

One test addresses T1, PDE4B1 (Homo sapiens, UniProt Q07343).
T1 construct: made in house; host or cells: SF21 insect cells (baculovirus; pCR-Bac vector)
Description: Inhibition of PDE4B1 activity (SPA, [3H]cAMP). The class given is biochemical. The conditions noted are these: recombinant PDE4B1 expressed in SF21 cells; 0.5 pM [sic] cAMP; values given as bins; read-out: PDE4B1 inhibitory values measured as −logIC50 (converted). The method in brief: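 Recombinant human PDE4B1 (Sf21 cell 1000 g supernatant) in 20 mM Tris pH 7.4, 0.1 mg/ml BSA, 5 mM Mg2+, […] with [3H]cAMP tracer, enzyme giving 10-20% conversion. After 5 min preincubation at 37 °C, 15 min reaction, stopped by SPA beads with IBMX; IC50 by non-linear regression.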

The next test concerns the target T2, human PDE5 (Homo sapiens, UniProt O76074).
T2 construct: from tissue; host or cells: human platelets from fresh donor blood (10,000 g supernatant of sonicated platelets)
Nature of the test: Inhibition of PDE5 activity (SPA, [3H]cGMP, platelet lysate). To be noted: PDE5 from human platelet lysate; values given as bins; read-out: PDE5A inhibitory values measured as −logIC50 (converted). The class given is biochemical. The method in brief: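 Human platelet lysate served as PDE5 source, with 1 μM motapizone and 10 nM PDE2 inhibitor present; […] plus [3H]cGMP tracer, pH 7.4, 5 mM Mg2+, 10-20% substrate turnover. After 5 min preincubation, 15 min at 37 °C, stopped with SPA beads and IBMX; IC50 by non-linear regression.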

T1 sequence (Q07343 whole entry): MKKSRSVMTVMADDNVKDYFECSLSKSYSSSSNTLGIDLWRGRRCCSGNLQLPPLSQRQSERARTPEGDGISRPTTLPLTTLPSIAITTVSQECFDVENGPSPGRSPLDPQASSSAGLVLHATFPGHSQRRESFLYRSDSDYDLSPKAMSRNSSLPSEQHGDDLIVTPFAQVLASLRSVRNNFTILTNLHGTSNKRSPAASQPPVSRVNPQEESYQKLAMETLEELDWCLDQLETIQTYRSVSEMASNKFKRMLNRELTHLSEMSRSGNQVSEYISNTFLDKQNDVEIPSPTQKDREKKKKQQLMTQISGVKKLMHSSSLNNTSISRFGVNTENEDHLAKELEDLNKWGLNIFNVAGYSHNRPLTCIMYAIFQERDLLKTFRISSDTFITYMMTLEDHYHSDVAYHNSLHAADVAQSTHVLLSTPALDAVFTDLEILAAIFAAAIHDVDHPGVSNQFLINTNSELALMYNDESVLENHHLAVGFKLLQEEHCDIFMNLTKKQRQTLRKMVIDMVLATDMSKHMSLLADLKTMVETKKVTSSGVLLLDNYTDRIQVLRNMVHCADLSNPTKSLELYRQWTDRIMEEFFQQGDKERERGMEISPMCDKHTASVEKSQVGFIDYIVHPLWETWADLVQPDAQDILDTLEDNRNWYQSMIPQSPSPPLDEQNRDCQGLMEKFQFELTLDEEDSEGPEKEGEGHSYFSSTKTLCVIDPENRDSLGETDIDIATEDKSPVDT

As to `CCOc1cc2c(cc1OC)C(c1ccc(C(=O)N3CCC(n4c(=O)c5sc(-c6ccc(F)cc6)cc5n(Cc5nnn(CC)n5)c4=O)CC3)cc1)=N[C@@H]1CCSC[C@H]21` [Example 40, 3-[1-({4-[(4aR,10bR)-9-ethoxy-8-methoxy-3,4,4a,10b-tetrahydro-1H-thiopyrano[4,3-c]isoquinolin-6-yl]phenyl}carbonyl)piperidin-4-yl]-1-[(2-ethyl-2H-tetrazol-5-yl)methyl]-6-(4-fluorophenyl)thieno[3,2-d]pyrimidine-2,4(1H,3H)-dione], the results for the IC50 at PDE4B1 and at human PDE5 were greater than 10 nM and less than 10 nM, respectively.
Turning to `CCOc1cc2c(cc1OC)C(c1cccc(C(=O)N3CCC(n4c(=O)c5sc(-c6ccc(F)cc6OC)cc5n(Cc5nnn(CC)n5)c4=O)CC3)c1)=N[C@@H]1CCSC[C@H]21` [Example 33, 3-[1-({3-[(4aR,10bR)-9-ethoxy-8-methoxy-3,4,4a,10b-tetrahydro-1H-thiopyrano[4,3-c]isoquinolin-6-yl]phenyl}carbonyl)piperidin-4-yl]-1-[(2-ethyl-2H-tetrazol-5-yl)methyl]-6-(4-fluoro-2-methoxyphenyl)thieno[3,2-d]pyrimidine-2,4(1H,3H)-dione], the IC50 at PDE4B1 was greater than 10 nM; on human PDE5, 10 to 100 nM.
Take `CCOc1cc2c(cc1OC)C(c1ccc(C(=O)N3CCC(n4c(=O)c5sc(-c6ccccc6)cc5n(Cc5nc(CC)co5)c4=O)CC3)cc1)=N[C@@H]1CCSC[C@H]21` [Example 5, 3-[1-({4-[(4aR,10bR)-9-ethoxy-8-methoxy-3,4,4a,10b-tetrahydro-1H-thiopyrano[4,3-c]isoquinolin-6-yl]phenyl}carbonyl)piperidin-4-yl]-1-[(4-ethyl-1,3-oxazol-2-yl)methyl]-6-phenylthieno[3,2-d]pyrimidine-2,4(1H,3H)-dione]: the results for the IC50 on PDE4B1 and on human PDE5 were 1 to 10 nM and 10 to 100 nM, respectively.
`CCOc1cc2c(cc1OC)C(c1ccc(C(=O)N3CCC(n4c(=O)c5sc(-c6ccccc6)cc5n(Cc5cc(C)on5)c4=O)CC3)cc1)=N[C@@H]1CCSC[C@H]21` [Example 6, 3-[1-({4-[(4aR,10bR)-9-ethoxy-8-methoxy-3,4,4a,10b-tetrahydro-1H-thiopyrano[4,3-c]isoquinolin-6-yl]phenyl}carbonyl)piperidin-4-yl]-1-[(5-methylisoxazol-3-yl)methyl]-6-phenylthieno[3,2-d]pyrimidine-2,4(1H,3H)-dione]: the IC50 at PDE4B1 is 1 to 10 nM; at human PDE5 it was 10 to 100 nM.
Regarding `CCOc1cc2c(cc1OC)C(c1ccc(C(=O)N3CCC(n4c(=O)c5sc(-c6ccc(F)cc6)cc5n(Cc5nc(CC)no5)c4=O)CC3)cc1)=N[C@@H]1CCSC[C@H]21` [Example 47, 3-[1-({4-[(4aR,10bR)-9-ethoxy-8-methoxy-3,4,4a,10b-tetrahydro-1H-thiopyrano[4,3-c]isoquinolin-6-yl]phenyl}carbonyl)piperidin-4-yl]-1-[(3-ethyl-1,2,4-oxadiazol-5-yl)methyl]-6-(4-fluorophenyl)thieno[3,2-d]pyrimidine-2,4(1H,3H)-dione], the IC50 was 1 to 10 nM on PDE4B1 and less than 10 nM on human PDE5.
Take `CCOc1cc2c(cc1OC)C(c1ccc(C(=O)N3CCC(n4c(=O)c5sc(-c6ccc7c(c6)OCO7)cc5n(Cc5nc(CC)no5)c4=O)CC3)cc1)=N[C@@H]1CCSC[C@H]21` [Example 46, 6-(1,3-benzodioxol-5-yl)-3-[1-({4-[(4aR,10bR)-9-ethoxy-8-methoxy-3,4,4a,10b-tetrahydro-1H-thiopyrano[4,3-c]isoquinolin-6-yl]phenyl}carbonyl)piperidin-4-yl]-1-[(3-ethyl-1,2,4-oxadiazol-5-yl)methyl]thieno[3,2-d]pyrimidine-2,4(1H,3H)-dione]: the IC50 on PDE4B1 is 1 to 10 nM; on human PDE5 it was less than 10 nM.
In the case of `CCCOCc1noc(Cn2c(=O)n(C3CCN(C(=O)c4ccc(C5=N[C@@H]6CCSC[C@@H]6c6cc(OCC)c(OC)cc65)cc4)CC3)c(=O)c3sc(-c4ccccc4)cc32)n1` [Example 51, 3-[1-({4-[(4aR,10bR)-9-ethoxy-8-methoxy-3,4,4a,10b-tetrahydro-1H-thiopyrano[4,3-c]isoquinolin-6-yl]phenyl}carbonyl)piperidin-4-yl]-6-phenyl-1-{[3-(propoxymethyl)-1,2,4-oxadiazol-5-yl]methyl}thieno[3,2-d]pyrimidine-2,4(1H,3H)-dione], the IC50 on PDE4B1 is less than 1 nM; at human PDE5, greater than 100 nM.
On to `CCn1nnc(Cn2c(=O)n(C3CCN(C(=O)c4ccc(C5=N[C@@H]6CCSC[C@@H]6c6cc(OC)c(OC)cc65)cc4)CC3)c(=O)c3sc(-c4ccccc4)cc32)n1` [Example 59, 3-[1-({4-[(4aR,10bR)-8,9-dimethoxy-3,4,4a,10b-tetrahydro-1H-thiopyrano[4,3-c]isoquinolin-6-yl]phenyl}carbonyl)piperidin-4-yl]-1-[(2-ethyl-2H-tetrazol-5-yl)methyl]-6-phenylthieno[3,2-d]pyrimidine-2,4(1H,3H)-dione], for which the values for the IC50 at PDE4B1 and at human PDE5 were greater than 10 nM and less than 10 nM, respectively.
As for `CCOc1cc2c(cc1OC)C(c1cccc(C(=O)N3CCC(n4c(=O)c5sc(-c6ccc(F)cc6OC)cc5n(Cc5nc(COC)no5)c4=O)CC3)c1)=N[C@@H]1CCSC[C@H]21` [Example 45, 3-[1-({3-[(4aR,10bR)-9-ethoxy-8-methoxy-3,4,4a,10b-tetrahydro-1H-thiopyrano[4,3-c]isoquinolin-6-yl]phenyl}carbonyl)piperidin-4-yl]-6-(4-fluoro-2-methoxyphenyl)-1-{[3-(methoxymethyl)-1,2,4-oxadiazol-5-yl]methyl}thieno[3,2-d]pyrimidine-2,4(1H,3H)-dione], the IC50 on PDE4B1 was 1 to 10 nM; at human PDE5, less than 10 nM.
Taken in the same sequence, the figures for `CCOc1cc2c(cc1OC)C(c1ccc(C(=O)N3CCC(n4c(=O)c5sc(-c6ccccc6)cc5n(Cc5ccc(CC)s5)c4=O)CC3)cc1)=N[C@@H]1CCSC[C@H]21` [Example 55, 3-[1-({4-[(4aR,10bR)-9-ethoxy-8-methoxy-3,4,4a,10b-tetrahydro-1H-thiopyrano[4,3-c]isoquinolin-6-yl]phenyl}carbonyl)piperidin-4-yl]-1-[(5-ethylthiophen-2-yl)methyl]-6-phenylthieno[3,2-d]pyrimidine-2,4(1H,3H)-dione] were 1 to 10 nM and 10 to 100 nM.
With `CCOc1cc2c(cc1OC)C(c1ccc(C(=O)N3CCC(n4c(=O)c5sc(-c6ccc(F)c(F)c6)cc5n(Cc5nc(CC)no5)c4=O)CC3)cc1)=N[C@@H]1CCSC[C@H]21` [Example 49, 6-(3,4-difluorophenyl)-3-[1-({4-[(4aR,10bR)-9-ethoxy-8-methoxy-3,4,4a,10b-tetrahydro-1H-thiopyrano[4,3-c]isoquinolin-6-yl]phenyl}carbonyl)piperidin-4-yl]-1-[(3-ethyl-1,2,4-oxadiazol-5-yl)methyl]thieno[3,2-d]pyrimidine-2,4(1H,3H)-dione], the figures for the IC50 on PDE4B1 and on human PDE5 were 1 to 10 nM and less than 10 nM, respectively.
In the case of `CCOc1cc2c(cc1OC)C(c1ccc(C(=O)N3CCC(n4c(=O)c5sc(-c6ccccc6)cc5n(Cc5nc(COC)no5)c4=O)CC3)cc1)=N[C@@H]1CCSC[C@H]21` [Example 15, 3-(1-{4-[(4aR,10bR)-9-ethoxy-8-methoxy-3,4,4a,10b-tetrahydro-1H-thiopyrano[4,3-c]isoquinolin-6-yl]benzoyl}piperidin-4-yl)-1-{[3-(methoxymethyl)-1,2,4-oxadiazol-5-yl]methyl}-6-phenylthieno[3,2-d]pyrimidine-2,4(1H,3H)-dione], the IC50 was 1 to 10 nM at PDE4B1 and less than 10 nM on human PDE5.
In the case of `CCOc1cc2c(cc1OC)C(c1ccc(C(=O)N3CCC(n4c(=O)c5sc(-c6ccccc6)cc5n(Cc5nc(CC)no5)c4=O)CC3)cc1)=N[C@@H]1CCSC[C@H]21` [Example 7, 3-(1-{4-[(4aR,10bR)-9-ethoxy-8-methoxy-3,4,4a,10b-tetrahydro-1H-thiopyrano[4,3-c]isoquinolin-6-yl]benzoyl}piperidin-4-yl)-1-[(3-ethyl-1,2,4-oxadiazol-5-yl)methyl]-6-phenylthieno[3,2-d]pyrimidine-2,4(1H,3H)-dione], the IC50 was 1 to 10 nM at PDE4B1 and less than 10 nM on human PDE5.
For `CCOc1cc2c(cc1OC)C(c1ccc(C(=O)N3CCC(n4c(=O)c5sc(-c6ccccc6)cc5n(Cc5nnn(CC)n5)c4=O)CC3)cc1)=NC1CC[S+]([O-])CC21` (single isomer, unassigned) [Example 24] the same measures were greater than 10 nM and less than 10 nM.
Turning to `CCOc1cc2c(cc1OC)C(c1ccc(C(=O)N3CCC(n4c(=O)c5sc(-c6ccccc6)cc5n(Cc5ncc(C)s5)c4=O)CC3)cc1)=N[C@@H]1CCSC[C@H]21` [Example 12, 3-[1-({4-[(4aR,10bR)-9-ethoxy-8-methoxy-3,4,4a,10b-tetrahydro-1H-thiopyrano[4,3-c]isoquinolin-6-yl]phenyl}carbonyl)piperidin-4-yl]-1-[(5-methyl-1,3-thiazol-2-yl)methyl]-6-phenylthieno[3,2-d]pyrimidine-2,4(1H,3H)-dione], the results for the IC50 on PDE4B1 and on human PDE5 were 1 to 10 nM and 10 to 100 nM, respectively.
For `CCOc1cc2c(cc1OC)C(c1ccc(C(=O)N3CCC(n4c(=O)c5sc(-c6ccccc6)cc5n(Cc5coc(CC)n5)c4=O)CC3)cc1)=N[C@@H]1CCSC[C@H]21` [Example 16, 3-[1-({4-[(4aR,10bR)-9-ethoxy-8-methoxy-3,4,4a,10b-tetrahydro-1H-thiopyrano[4,3-c]isoquinolin-6-yl]phenyl}carbonyl)piperidin-4-yl]-1-[(2-ethyl-1,3-oxazol-4-yl)methyl]-6-phenylthieno[3,2-d]pyrimidine-2,4(1H,3H)-dione] the same measures were 1 to 10 nM and greater than 100 nM.
